# Reference: ChEMBL document CHEMBL1201862, “PubChem BioAssay data set” (2004)
# Calls of active or inactive are those of the source.
# What was measured:
# Vero [1] = assay: cells; format: functional, cell-based; settings: Chlorocebus sabaeus
# [2] = microbe, parasite or virus in culture; format: functional; settings: Mycobacterium tuberculosis
# [3] = Luminescence Cell-Based Dose Confirmation HTS to Identify Activators of 5'UTR Stem-Loop Driven Alpha-Synuclein mRNA Translation in H4 Neuroglioblastoma Cells. [Related pubchem assays: 1829 (Project Summary), 1814 (Primary HTS)]; format: functional
# [4] = Luminescence Cell-Based Dose Response HTS to Identify Activators of Luciferase Translation or Activity in H4 […] Cells. [Related pubchem assays: 1829 (Project Summary), 1814 (Primary HTS)]; format: functional
# H4 = assay: Luminescence Cell-Based Dose Response HTS to Identify Activators of 5'UTR Stem-Loop Driven Prion Protein mRNA Translation in H4 Neuroglioblastoma Cells. [Related pubchem assays: 1829 (Project Summary), 1814 (Primary HTS)]; format: functional; settings: Homo sapiens
# Vero [5] = assay: cells; format: functional; settings: Chlorocebus sabaeus
# [6] = Luminescence-based cell-based high throughput dose response assay to identify activators of the DAF-12 from the parasite S. stercoralis (ssDAF-12).; format: functional
# [7] = ADAM10 protease inhibitors, dose response, selectivity assay for ADAM17 exosite inhibitor project, biochemical, FRET peptide substrate, recombinant human ADAM10 (AID 743259);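 note: ADAM10 enzyme cleaving a FRET peptide substrate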
# [8] = molecular target: Disintegrin and metalloproteinase domain-containing protein 17 (Homo sapiens, UniProt P78536); assay: exosite inhibitors of ADAM17, dose response, biochemical (AID 743260)
# Disintegrin and metalloproteinase domain-containing protein 17, sequence (P78536 whole entry, the tested form may be a part): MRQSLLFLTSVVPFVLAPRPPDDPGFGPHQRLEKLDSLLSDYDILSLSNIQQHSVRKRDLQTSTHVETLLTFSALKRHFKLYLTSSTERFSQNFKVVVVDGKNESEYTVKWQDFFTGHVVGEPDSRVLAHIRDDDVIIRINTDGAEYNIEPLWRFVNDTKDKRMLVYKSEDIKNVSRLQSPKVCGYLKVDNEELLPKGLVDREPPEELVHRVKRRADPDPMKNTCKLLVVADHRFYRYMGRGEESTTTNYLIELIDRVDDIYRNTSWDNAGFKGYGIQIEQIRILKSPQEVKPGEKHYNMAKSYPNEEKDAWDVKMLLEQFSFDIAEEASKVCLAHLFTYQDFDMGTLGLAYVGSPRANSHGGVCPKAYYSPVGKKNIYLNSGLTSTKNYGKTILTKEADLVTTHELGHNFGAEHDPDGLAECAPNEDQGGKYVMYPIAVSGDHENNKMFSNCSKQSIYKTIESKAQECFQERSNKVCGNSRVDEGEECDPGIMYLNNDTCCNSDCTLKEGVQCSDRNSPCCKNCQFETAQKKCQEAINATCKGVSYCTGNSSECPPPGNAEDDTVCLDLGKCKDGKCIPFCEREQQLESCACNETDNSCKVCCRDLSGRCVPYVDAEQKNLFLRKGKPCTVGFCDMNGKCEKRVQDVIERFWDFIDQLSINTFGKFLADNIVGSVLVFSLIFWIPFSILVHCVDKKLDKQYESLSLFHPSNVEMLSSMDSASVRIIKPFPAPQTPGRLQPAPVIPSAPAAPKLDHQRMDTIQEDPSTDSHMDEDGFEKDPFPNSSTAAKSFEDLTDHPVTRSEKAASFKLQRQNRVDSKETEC
# [9] = molecular target: Ras and Rab interactor 1/Tyrosine-protein kinase ABL1 (Homo sapiens, UniProt P00519+Q13671); format: functional;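 note: biochemical TR-FRET dose-response test measuring inhibition of binding between Rin1 and Abl proteins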
# Ras and Rab interactor 1/Tyrosine-protein kinase ABL1, sequence (P00519 whole entry): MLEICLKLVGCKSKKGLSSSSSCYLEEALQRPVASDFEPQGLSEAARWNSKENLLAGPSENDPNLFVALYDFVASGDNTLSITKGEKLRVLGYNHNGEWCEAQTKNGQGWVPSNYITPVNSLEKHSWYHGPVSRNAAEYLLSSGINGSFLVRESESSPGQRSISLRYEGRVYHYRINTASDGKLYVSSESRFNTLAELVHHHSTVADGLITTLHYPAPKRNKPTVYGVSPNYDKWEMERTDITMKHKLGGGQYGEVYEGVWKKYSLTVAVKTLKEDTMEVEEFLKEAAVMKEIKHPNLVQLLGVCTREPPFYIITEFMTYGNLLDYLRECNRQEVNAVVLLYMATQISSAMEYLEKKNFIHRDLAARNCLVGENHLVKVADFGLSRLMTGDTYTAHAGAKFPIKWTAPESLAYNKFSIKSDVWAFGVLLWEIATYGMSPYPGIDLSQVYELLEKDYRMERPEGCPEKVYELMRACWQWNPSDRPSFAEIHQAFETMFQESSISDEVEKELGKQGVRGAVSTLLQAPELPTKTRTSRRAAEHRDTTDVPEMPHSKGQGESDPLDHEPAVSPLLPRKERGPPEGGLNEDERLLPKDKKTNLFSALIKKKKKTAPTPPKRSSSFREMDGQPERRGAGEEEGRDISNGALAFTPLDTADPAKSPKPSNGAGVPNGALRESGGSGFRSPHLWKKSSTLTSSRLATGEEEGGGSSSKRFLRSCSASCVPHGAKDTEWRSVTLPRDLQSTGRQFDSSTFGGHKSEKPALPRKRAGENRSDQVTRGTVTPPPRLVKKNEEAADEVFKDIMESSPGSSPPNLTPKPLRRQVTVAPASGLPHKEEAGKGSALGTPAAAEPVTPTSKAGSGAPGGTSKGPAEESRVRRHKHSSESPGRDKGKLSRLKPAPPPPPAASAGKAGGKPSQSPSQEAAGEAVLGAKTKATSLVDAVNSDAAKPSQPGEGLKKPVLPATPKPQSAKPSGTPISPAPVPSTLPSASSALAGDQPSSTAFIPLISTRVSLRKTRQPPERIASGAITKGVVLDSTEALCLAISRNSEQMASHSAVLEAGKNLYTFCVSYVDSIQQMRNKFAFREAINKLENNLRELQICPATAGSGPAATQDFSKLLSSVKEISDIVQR
# Ras and Rab interactor 1/Tyrosine-protein kinase ABL1, sequence (Q13671 whole entry): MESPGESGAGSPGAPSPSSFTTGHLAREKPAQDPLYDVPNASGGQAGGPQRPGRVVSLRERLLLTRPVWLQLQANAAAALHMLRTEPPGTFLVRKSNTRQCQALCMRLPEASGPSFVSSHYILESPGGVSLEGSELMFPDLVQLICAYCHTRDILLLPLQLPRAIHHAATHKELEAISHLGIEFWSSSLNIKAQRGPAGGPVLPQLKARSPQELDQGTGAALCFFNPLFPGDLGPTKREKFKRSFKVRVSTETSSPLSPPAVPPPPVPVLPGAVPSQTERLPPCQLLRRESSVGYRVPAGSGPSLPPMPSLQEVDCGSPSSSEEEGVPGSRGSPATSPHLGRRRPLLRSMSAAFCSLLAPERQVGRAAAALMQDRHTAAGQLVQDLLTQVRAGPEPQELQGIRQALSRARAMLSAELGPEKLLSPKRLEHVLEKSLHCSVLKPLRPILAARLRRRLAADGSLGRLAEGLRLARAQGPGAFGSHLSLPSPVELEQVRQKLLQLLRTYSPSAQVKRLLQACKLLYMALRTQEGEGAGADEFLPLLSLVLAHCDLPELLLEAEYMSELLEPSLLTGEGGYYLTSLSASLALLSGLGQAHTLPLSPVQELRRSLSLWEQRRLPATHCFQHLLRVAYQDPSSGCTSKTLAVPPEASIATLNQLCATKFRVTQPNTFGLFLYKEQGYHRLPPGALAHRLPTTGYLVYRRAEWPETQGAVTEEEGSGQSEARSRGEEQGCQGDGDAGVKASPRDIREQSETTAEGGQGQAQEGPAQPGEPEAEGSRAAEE
# [10] = NIH:OVCAR-3 ovarian cancer cell cytotoxicity, dose response, PAX8 inhibitor project, plate reader, dry powder samples (AID 743044); format: functional, cell-based
# [11] = P. falciparum Dd2 growth inhibitors, dose response, SYBR Green, cherry-picked samples (AID 1159567); format: functional, cell-based
# [12] = cytotoxicity in OVCAR8 ovarian cancer cells, dose response, PAX8 project, cell-based, plate reader, dry powder samples (AID 743197); format: functional; settings: OVCAR-8
# Paired box protein Pax-8 = Paired box protein Pax-8 (Homo sapiens, UniProt Q06710); assay: inhibitors of PAX8-driven TPO luciferase reporter, dose response, RMG-I cells, cherry-pick (AID 687027); format: functional, cell-based;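 note: luciferase reporter driven by Pax8 target thyroperoxidase promoter measured by SteadyGlo luminescence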
# Paired box protein Pax-8, sequence (Q06710 whole entry): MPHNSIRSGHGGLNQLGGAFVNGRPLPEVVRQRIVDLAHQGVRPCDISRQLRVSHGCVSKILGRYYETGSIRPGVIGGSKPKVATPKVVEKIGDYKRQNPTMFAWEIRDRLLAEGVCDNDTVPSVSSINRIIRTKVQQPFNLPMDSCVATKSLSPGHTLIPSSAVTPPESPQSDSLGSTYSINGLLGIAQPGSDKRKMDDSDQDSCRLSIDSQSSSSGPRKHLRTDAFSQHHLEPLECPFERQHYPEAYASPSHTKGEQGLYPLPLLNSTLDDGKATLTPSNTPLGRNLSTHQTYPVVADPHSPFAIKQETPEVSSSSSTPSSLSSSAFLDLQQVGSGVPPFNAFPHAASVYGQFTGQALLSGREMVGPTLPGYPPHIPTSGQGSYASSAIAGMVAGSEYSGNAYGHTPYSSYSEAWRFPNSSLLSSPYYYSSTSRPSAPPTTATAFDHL
smiles,measurement,setting,value
CC(C)C1N=C(c2ccc3c(c2)OCO3)CC(c2ccccc2O)N1 (configuration not stated),IC50,Vero [1],> 25 µM (active)
same,CC50,[2],13.8 µM (active)
same,EC50,[3],16.6 µM (active)
same,EC50,[4],15.4 µM (active)
same,EC50,H4,4.62 µM (active)
same,CC50,Vero [5],14.7 µM (active)
Nc1ccccc1C=C1Cc2ccccc2C1=O,IC50,[6],> 67.6 µM (inactive)
OC(c1ccc(F)c(F)c1)c1nc(-c2cccc(C(F)(F)F)c2)cs1 (configuration not stated),IC50,[7],12.1 µM (inactive)
same,IC50,[8],50.5 µM (inactive)
CC(=O)c1cccc(-c2ccnc3c2CC(C(=O)NCc2ccc(N4CCN(C)CC4)cc2)O3)c1 (configuration not stated),IC50,[9],29.9 µM (inactive)
COc1cc(/C=N/NC(=O)CSc2ccccn2)ccc1OC(C)C,IC50,[9],19.1 µM (inactive)
Oc1nc2ccccc2n1C1CCN(C(c2nnnn2C2CCCC2)C2CC2)CC1 (configuration not stated),IC50,[9],17.3 µM (inactive)
CC(C)CC#Cc1ccc2c(c1)O[C@H](CN(C)S(=O)(=O)c1ccc(F)cc1)[C@@H](C)CN([C@@H](C)CO)S2(=O)=O,AC50,[10],49.7 µM (active)
same,AC50,[11],5.25 µM (active)
same,AC50,[12],> 70 µM (inactive)
same,AC50,Paired box protein Pax-8,10.3 µM (active)
CCOc1ccc(-n2c(SCC(=O)Nc3cc(C)c(NC(=O)c4ccccc4)cc3OC)nnc2-c2cccs2)cc1,IC50,[7],> 69.5 µM (inactive)
same,IC50,[8],> 69.5 µM (inactive)
Nc1[nH]c(C(=O)c2ccc(Br)cc2)c(-c2ccccn2)c1C(=O)NCCc1c[nH]c2ccccc12,IC50,[7],16.4 µM (inactive)
same,IC50,[8],> 69.5 µM (inactive)
C[C@@H]1CN([C@H](C)CO)C(=O)c2cc(NC(=O)Cc3ccccc3)ccc2O[C@@H](C)CCCCO[C@H]1CN(C)Cc1ccc(Cl)c(Cl)c1,AC50,[10],28.2 µM (active)
same,AC50,[12],> 70 µM (inactive)
